From patent publication EP4623928A1, “GLP-1R ANTAGONISTS FOR THE TREATMENT OF CANCER” (Fiorina, Paolo, priority 2024, dated 2025)

Tests used:
[1] = system: MC38 colorectal cancer cells; experiment: Colorectal tumour model (MC38 cells injected into the distal posterior rectum); format: in vivo, C57BL/6 mice
Protocol: Female C57BL/6 mice were anesthetized with 100 mg/kg of ketamine and 50 mg/kg of xylazine. Next, by using a 29-gauge syringe, 2×10^5 MC38 cells were injected submucosally into the distal posterior rectum in a final volume of […], as described previously (36, 37). MC38-injected mice were randomly assigned into 2 groups: (i) Exe-9-treated group (n=8), where all mice received an intraperitoneal injection of 2 µg of Exendin-9-39 (Exe-9) starting by Day1 for a total of 14 days; (ii) untreated-group (n=6), where all mice received an IP injection of PBS starting by day 1 and for a total of 14 days. Tumour growth was visually monitored daily. After animals' sacrifice, tumours were measured by a digital calliper measuring tumour length, width, and height and were weighted using a digital scale. Procedures involving mice wereb conformed to institutional guidelines in agreement with national and international law and were approved by the ethics committee by the Ministry of Health.

[2] = system: CD4^+ and CD8^+ T cells; experiment: Cell death and proliferation of CD4+ and CD8+ T cells in splenocytes activated with anti-CD3/anti-CD28 (FACS); format: cell-based, C57BL/6 mice
[3] = system: Cardiac allografts; experiment: Murine cardiac allotransplantation (BALB/c hearts into C57BL/6 mice); format: in vivo
Protocol: Cardiac allografts from BALB/c mice were transplanted intra-abdominally in C57BL/6 mice using microsurgical techniques as described (31). Rejection was determined as complete cessation of cardiac contractility and was confirmed by direct visualization. Transplanted mice were intraperitoneally injected according to the following protocols: 1) Exendin-4 (Exe-4) (Amylin Pharmaceuticals, San Diego, CA - USA) 0.2pg twice/day for two weeks after transplant; 2) Exe-4 0.2pg twice/day from the day before until two weeks after transplant; 3) Exe-4 2µg twice/day from the day before until two weeks after transplant; 4) Exe-4 2µg twice/day + Exendin-9-39 (Exe-9) (Sigma-Aldrich) 2µg twice/day from the day before until two weeks after transplant; 5) Exe-4 2µg twice/day from the day before until two weeks after transplant + Rapamycin 0.1mg/die for two weeks; 6) saline 0.5ml twice/day for two weeks.

[4] = system: mitogen-stimulated murine splenocytes; experiment: IFN-γ ELISpot assay on anti-CD3/anti-CD28 stimulated splenocytes; format: cell-based, C57BL/6 mice; settings: Exe-9 added to Exe-4, 0.1, 1 or 10 nM, 24 hours
Protocol: An ELISPOT assay was used to measure the number of IFN-γ-producing cells according to the manufacturer's protocol (BD Biosciences) as previously performed by our group (39). To test the role of GLP-1R-driven immunity on the anti-CD3/28 non-autoimmune specific response, 1×10^6 splenocytes isolated from C57BL/6 mice were cultured in a microwell plate (BD Biosciences) coated with IFN-y capture antibody (Ab) in the presence of the following soluble anti-CD3 and anti-CD28 at 0,5ug/ml for 24 hours. Exe-4 and/or Exe-4+Exe-9-39 at concentrations of 0.1, 1 or 10 nM were added to the culture. After 24 hours, bound secondary Ab was visualized using HRP-streptavidin and the AEC substrate kit (BD Biosciences). Spots were counted using an Immunospot analyzer (Cellular Technology Ltd., Cleveland, OH) and expressed as the number of cytokine-producing spots per 1×10^6 cells. After 24hours, ELISpot plates were developed and acquired on an ELISpot reader, as previously described.

[5] = system: islet allografts; experiment: Murine islet allotransplantation (BALB/c islets into STZ-treated C57BL/6 mice); format: in vivo
Protocol: Pancreatic islets from BALB/c mice were isolated by collagenase digestion and density gradient separation as previously described (33, 34). Subsequently, four to five hundred islets were inoculated under the renal capsule of each C57BL/6 recipient rendered diabetic with streptozotocin (STZ) (200 mg/kg, administered i.p. Sigma-Aldrich). Islet transplantation success was confirmed by glycaemia normalization. Rejection of islet allografts was defined as blood glucose levels >250 mg/dl for at least 2 consecutive days (35). Treatment modalities were the following: transplanted mice were intraperitoneally injected according to the following protocols: 1) Exendin-4 (Exe-4) (Amylin Pharmaceuticals, San Diego, CA -USA) 0.2pg twice/day for two weeks after transplant; 2) Exe-4 0.2pg twice/day from the day before until two weeks after transplant; 3) Exendin-4 2µg twice/day from the day before until two weeks after transplant; 4) Exendin-4 2µg twice/day + Exendin-9-39 (Exe-9) (Sigma-Aldrich) 2µg twice/day from the day before until two weeks after transplant; 5) Exendin-4 2µg twice/day from the day before until two weeks after transplant + Rapamycin 0.1mg/die for two weeks; 6) saline 0.5ml twice/day for two weeks. The follow-up of the transplanted mice was for 100 days.

[6] = 2 µg of Exe-9 once a day for 14 days, vs untreated
[7] = Exe-9-treated group vs untreated
[8] = co-administration Exe-4 2µg twice/day + Exe-9 2µg twice/day
[9] = splenic, Exe-9 co-administration with Exe-4

Substance: Exendin-9-39 [Exe-9]
- tumour size ([1]; 2 µg of Exe-9 once a day for 14 days, intraperitoneal, vs untreated (PBS)): significantly reduced
- colon length [1, 6]: no differences
- mesenteric lymph nodes volume [1, 6]: significantly reduced
- spleen weight [1, 6]: no differences
- CD3^+ and CD8^+ effector memory T cells within the spleen and mesenteric lymph nodes [1, 7]: no major differences
- tumor infiltration of CD3^+ T cells (FACS) [1, 7]: increased infiltration
- tumor infiltration of activated effector memory CD8^+ T cells (FACS) [1, 7]: increased infiltration
- intratumoral infiltration of CD3^+ T cells (pathological examination) ([1]; Exe-9-treated group vs untreated, immunohistochemistry): significant intratumoral infiltration
- effect of Exe-9 on Exe-4-induced cell death ([2]; Exe-9 added to Exe-4, anti-CD3/anti-CD28 activated splenocytes): reduced the effect
- percentages of proliferating (or cell trace positive) CD4^+ and CD8^+ T cells ([2]; addition of antagonist Exe-9 to Exe-4, anti-CD3/CD28 Abs (Fig. 13D-E)): No differences
- effect of Exe-9 on the beneficial effects of Exe-4 (heart allograft survival) [3, 8]: partly abolished
- effect of Exe-9 on the Exe-4-induced decrease of graft infiltration ([3]; day-7 heart allograft, Exe-9 co-administration with Exe-4): abolished
- effect of Exe-9 on the Exe-4-induced decrease of CD4^+ and CD8^+ effector T cells [3, 9]: reverted
- effect of Exe-9 on the Exe-4-induced reduction of IFN-y producing cells [4]: significantly hampered the overseen immunoregulatory effect of Exe-4
- effect of Exe-9 on the beneficial effects of Exe-4 (islet allograft survival) [5, 8]: partly abolished
- graft infiltration (Hematoxylin and eosin staining) ([5]; islet allograft at day 14, co-administration of Exe-9 with Exe-4): restored the graft infiltration
- CD8^+ effector cell number [5, 9]: restored CD8^+ effector cell number
- Tregs [5, 9]: did not affect Tregs
